# Assay results: US20090298938A1, “USE OF SEMI SYNTHETIC ANALOGUES OF BOSWELLIC ACIDS FOR ANTICANCER ACTIVITY” (COUNCIL OF SCIENTIFIC & INDUSTRIAL RESEARCH, priority 2008, published 2009)
# Columns and labels:
# PC-3 cells = assay: In vitro cytotoxicity, SRB assay, PC-3; assay type: cell-based, human; details: Table 2
# Procedure: (§1) The semi-synthetic analogues of formula 1 have been subjected to in vitro cytotoxicity screening in a panel of human cancer cell lines using following methodology. The human cancer cell lines were obtained either from National Center for Cell Science, Pune or National Cancer Institute, Fredrick, Md., USA. Cells were grown in tissue culture flasks in complete growth medium (RPMI-1640 medium with 2 mM glutamine, 100 µg/ml streptomycin, pH 7.4, sterilized by filtration and supplemented with 10% sterilized fetal calf serum and 100 units/ml penicillin before use) at 37° C. in an atmosphere of 5% CO2 and 90% relative humidity in a carbon dioxide incubator. The cells at sub-confluent stage were harvested from flask by treatment with trypsin (0.05% trypsin in PBS containing 0.02% EDTA) and suspended in complete growth medium. Cells with cell viability of more than 97% by trypan blue exclusion technique were used for determination of cytotoxicity.
# (§2) Test material were dissolved in DMSO (dimethyl sulphoxide) to obtain a stock solution of 2×10^−2M. The stock solution was serially diluted with complete growth medium containing 50 μg/ml of gentamycin to obtain working test solutions of required concentrations.
# (§3) The suspension of human cancer cell lines of required cell density in complete growth medium was prepared and cell suspension (100 μl/well) of each cell line was added to wells of 96-well tissue culture plate. Suitable blanks and controls were also included. The plates were incubated for 24 hrs in a carbon dioxide incubator.
# (§4) The working test solutions of different concentrations (100 μl/well) were added after 24 hr incubation. The plates were further incubated for 48-hrs after addition of the test materials. After incubation, the cell growth was stopped by gently layering of 50 μl of TCA (50% trichloroacetic acid) on top of the medium in all the wells. The plates were incubated at 4° C. for one hour to fix the cells attached to bottom of the wells. Liquids of all the wells were gently pipetted out and discarded. The plates were washed five times with distilled water to remove TCA, growth medium, low molecular weight metabolites, serum proteins etc. The plates were air dried.
# (§5) Cell growth was measured by staining with sulforhodamine B dye (SRB). The SRB solution (100 μl, 0.4% in 1% acetic acid) was added to each well and the plates were incubated at room temperature for 30 minutes. The unbound SRB was quickly removed by washing the wells five times with 1% acetic acid solution and plates were air dried. Tris buffer (100 μl, 0.01 M, pH 10.4) was added to all the wells and plates were gently stirred for 5 minutes on a mechanical stirrer. The optical density was recorded on ELISA reader at 540 nm.
# (§6) Cell growth in the presence of test material was calculated in terms of the percentage of growth inhibition. The in vitro cytotoxicity of four natural boswellic acid i.e. boswellic acid, acetyl boswellic acid, 11-keto-boswellic acids, acetyl-11-ketio-boswellic acid on various cancer cell lines has been examined and typical results are given in the succeeding table. Based on their cytotoxicity profile the analogues of formula 1 were studied for inhibition of cell proliferation by using MTT assay method. […] The induction of apoptosis in HL-60 cells was also validated by generation of DNA fragmentation.
# (§7) Assay of cytotoxicity potential of test materials is a primary standard procedure for seeking lead molecules for development of anti-cancer leads. Human cancer cells after trypsinization into single cell suspension were grown in 96-well culture plate for 24 hr. Cells were treated with indicated doses of test analogues and incubated in CO2 incubator for 48 hr. Thereafter, cells were stained with sulforhodamine B dye, and the bound dye was eluted to measure the optical density indicating cell growth in Elisa Reader at 540 nm [Monks et al., 1991]. […]
# [1] = tested on: Colo-205 colon cancer cells; assay: In vitro cytotoxicity, SRB assay, Colo-205; assay type: cell-based, human; details: Table 2
# Procedure: as §1, §2, §3, §4, §5, §6, §7
# [2] = tested on: SW-620 colon cancer cells; assay: In vitro cytotoxicity, SRB assay, SW-620; assay type: cell-based, human; details: Table 2
# Procedure: as §1, §2, §3, §4, §5, §6, §7
# Hep-2 cells = assay: In vitro cytotoxicity, SRB assay, Hep-2; assay type: cell-based, human; details: Table 2
# Procedure: as §1, §2, §3, §4, §5, §6, §7
# [3] = tested on: Ehrlich Ascitic Carcinoma solid tumor; assay: Ehrlich ascitic tumor (solid) growth inhibition in mice; assay type: in vivo, Swiss albino mice; details: 22 mg/kg intraperitoneally, 9 days, evaluated day 13, positive control
# Procedure: FIG. 9. Tumor growth inhibition by boswellic acid analogs. Mice treated intraperitoneally with a compound (designated “c”) of formula 1, wherein R3=COCH2CH2CH3, R1=H, R4+R5=O, have shown 22% tumor growth inhibition at a dose of about 50 mg/kg of body weight, and 41% tumor growth inhibition at a dose of 100 mg/kg of body weight.
# Swiss albino mice of 6-8 weeks, weighing 18-23 g of single sex were used. For the initiation of experiment, 1×10^7 cells of EAC (Ehrlich Ascitic Carcinoma) cells were transplanted intramuscularly (i.m.) in 32 mice for the development of solid tumors. The day of tumor transplantation was assigned as day 0. Next day (day-1) animals were randomly selected and divided into four groups having equal number of mice in each group of similar body wt. Groups I and II were treated with compound of formula 1 where R3=COCH2CH2CH3, R1=H, R4+R5=O at the dose of 50 mg/kg b, wt and 100 mg/kg b. wt. intraperitoneally, respectively. Group III received 0.2 ml of 0.85% normal saline and served as normal control while group IV serving as positive control was treated with 5-FU (22 mg/kg b. wt.) intraperitoneally. The total duration of treatment was of 9 days. The evaluation of effect of treatment on tumor was done on 13th day. Ehrlich ascites cells (1×10^7) were injected intramuscularly in the right thigh muscles and on the following day animals started receiving treatment intraperitoneally in 0.5% Tween-20 daily at the indicated doses for 9 days. The growth of tumor and the efficacy of compound of formula 1, where R3=COCH2CH2CH3, R1=H, R4+R5=O in inhibiting tumor growth were evaluated on day 13 in terms of the weight of the tumor in treated and control groups count. The determination of solid tumor growth inhibition against EAT was calculated as percent tumor growth regression according to the following: […]
# HT-29 colon cancer cells = assay: In vitro cytotoxicity, SRB assay, HT-29; assay type: cell-based, human; details: Table 2
# Procedure: as §1, §2, §3, §4, §5, §6, §7
# HL-60 cells = assay: Apoptosis induction, annexin V-FITC/PI flow cytometry; assay type: cell-based, human; details: HL-60, 15 μM, 6 hr
# Procedure: FIG. 2. Comparative efficacy of apoptosis induction: Measurement by flow cytometry. The effects of boswellic acid on the relative efficiency of induction of apoptosis and necrosis in HL-60 cells were analyzed by flow cytometry. Cells were incubated with each analog for 6 hrs and stained with annexin V-FITC labeled. The dot plots are representative of one of the two separate experiments. Values in the lower right quadrant represent the apoptotic population in the UR as post-apoptotic and in the UL as necrotic. Where a=compound of formula 1, R3=COCH2CH2CH3, […], R4=[…], b=compound of formula 1, R3=COCH2CH3R1=H, R4=[…], c=compound of formula 1, R3=COCH2CH2CH3, […], R4+R5=O, d=compound of formula 1, […], R3=COCH2CH3, R4=[…], e=compound of formula 1, R3=COCH2CH2CH3, […], R4=[…], f=β-boswellic acid. Compounds of formula 1 where […], R3=COCH2CH3R3=[…]; R3=COCH2CH2CH3, […], R4=[…] and natural β-boswellic acid produced low level of apoptotic cell population (approx. 10%) compared to compound of formula 1 where R3=COCH2CH2CH3, […], R4=[…] (17%), […], R3=COCH2CH3, R4=[…] (30%) and where R3=COCH2CH2CH3, […], R4+R5=O (23%), although the combined apoptotic and post-apoptotic population was about 32% with the last three analogs. Confirmation that boswellic acid analogs are potent inducers of apoptosis may also be obtained from DNA fragmentation assay. During the early events of apoptosis, phospholipid phosphatidyl serine of plasma membrane is externalized, which has very high affinity for annexinV antibody. Effect of a single concentration (15 μM) of each boswellic acid analogs on the relative efficiency of induction of apoptosis and necrosis in HL-60 cells was analyzed by flow cytometry. Cells were incubated with each analog for 6 hr and stained with Annexin V-FITC/PI. Camptothecin at 4 μM was used as positive control. There after, cells were washed and stained with FITC conjugated annexinV antibody and propidium iodide. The cells (10,000) were analysed by flow cytometery (BD, LSR) using ProQuest software.
structure (smiles),measurement,setting,value
"O=c1[nH]cc(F)c(=O)[nH]1 [Compound 5-FU, 5-FU, reference compound]",Growth inhibition % PC-3,PC-3 cells; Conc. 1 × 10^4,52%
same,Growth inhibition % PC-3,PC-3 cells; Conc. 1 × 10^5,37%
same,Growth inhibition % Colo-205 Colon,[1]; Conc. 1 × 10^4,39%
same,Growth inhibition % Colo-205 Colon,[1]; Conc. 1 × 10^5,43%
same,Growth inhibition % SW-620 Colon,[2]; Conc. 1 × 10^4,7%
same,Growth inhibition % SW-620 Colon,[2]; Conc. 1 × 10^5,0%
same,Growth inhibition % Hep-2,Hep-2 cells; Conc. 1 × 10^4,5%
same,Growth inhibition % Hep-2,Hep-2 cells; Conc. 1 × 10^5,14%
same,tumor growth inhibition,[3],56%
same,Growth inhibition % HT-29 Colon,HT-29 colon cancer cells; Conc. 1 × 10^4,21%
same,Growth inhibition % HT-29 Colon,HT-29 colon cancer cells; Conc. 1 × 10^5,40%
CCC(=O)OC1CCC2(C)C(CCC3(C)C2CC=C2C4C(C)C(C)CCC4(C)CCC23C)C1(C)C(=O)O (stereo not drawn) [b],apoptotic cell population,"HL-60 cells; listed as R1=H, R3=COCH2CH3R3=R4=H",approx. 10%
CCC(=O)OC1CCC2(C)C(CCC3(C)C2CC=C2C4C(C)C(C)CCC4(C)CCC23C)C1(C)C(=O)O (stereo not drawn) [d],combined apoptotic and post-apoptotic population,HL-60 cells,about 32%
same,apoptotic cell population,"HL-60 cells; listed as R1=H, R3=COCH2CH3, R4=R5=H",30%
"C[C@H]1[C@H](C)CC[C@]2(C)CC[C@]3(C)C(=CC[C@@H]4[C@@]5(C)CC[C@@H](O)[C@](C)(C(=O)O)[C@@H]5CC[C@]43C)[C@H]12 [β-boswellic acid, reference compound]",apoptotic cell population,HL-60 cells,approx. 10%
